Counter-ions that a name gives are not always drawn. Like-named read-outs stand apart in the source and are kept apart here.
How the values were obtained:
[1] = system: myosin regulatory light chain; assay: Action on amount of phosphorylated myosin regulatory light chain in the cells (Test Example 1); type: cell-based, human; conditions: neutrophils of healthy volunteers, reaction with test compound at 25°C for 5 minutes, read-out: Inhibition of myosin regulatory light chain phosphorylation (IC50: µM)
Method in brief: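 Neutrophil suspension (5 x 10^6/ml, HBSS) reacted 5 min at 25 °C with test compound at various concentrations. TCA-stopped, urea-extracted and run on SDS-PAGE, then immunoblotted with antibody specific for phosphorylated myosin regulatory light chain, detected by HRP/ECL and quantified by densitometry. Result given as % inhibition of phosphorylation.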

[2] = system: ovalbumin-immunized guinea pigs; assay: Respiratory tract constriction suppression action, ovalbumin-induced (Test Example 3); type: in vivo, Hartley guinea pigs; conditions: result in words; test medicament given into hind leg vein after induction with 0.3 mg/kg ovalbumin, measured for 15 minutes
Description: Four-week old Hartley guinea pigs (male) were immunized by intraperitoneal administration of ovalbumin (Sigma, Grade V) in amounts of 1 mg for each animal on the day on which the experiment was started, 3 mg for each animal after 2 days, and 10 mg for each animal after 4 days. Twelve to fourteen days after the final immunization, the ovalbumin-immunized guinea pigs were anesthetized by intraperitoneal administration of about 40 mg/kg of pentobarbital (Somnopentyl), and the tracheas were taken out. Subsequently, a cannula (SP-110, Natsume) was inserted into each trachea, and one end of the cannula was connected to an artificial respirator (Model-b83, Harvard). The aeration conditions were set at 6 ml per kilogram and 60 times per 1 minute. Further, a cannula for medicament administration (JMS wing needle 23G 3/4) was inserted into a hind leg vein. Myoblock (Organon Technica) was administered in an amount of 0.5 mg/kg from the cannula inserted into the hind leg vein to stop the spontaneous breathing, and after 2 or 3 minutes, 0.3 mg/kg of ovalbumin was administered to induce constriction of respiratory tract. The increase of airway resistance value 2 minutes after the induction (measurement apparatuses: pressure transducer TR-603T, respiratory amplifier AR-601G, and recorder RTA-3100, Nihon Kohden Corp.) was confirmed to be above 80 cm H2O or higher, and then, a solution of a test medicament was administered from the cannula inserted into the hind leg vein, and the airway resistance value was continuously measured for 15 minutes after the administration to determine the effect.

[3] = system: Japanese white rabbit; assay: Intraocular pressure reducing action (Test Example 4); type: in vivo; conditions: Oryctolagus cuniculus, topical; 50 µl of test compound (1% aqueous solution) dropped to the left eye, after 2 hours; read-out: Intraocular pressure reducing action (reduction ratio) (%)
[4] = system: Neutrophils; assay: Neutrophil migration inhibitory action, Boyden Chamber, FMLP (Test Example 5); type: cell-based, human; conditions: Homo sapiens, Neutrophil, 0.5 h, FMLP (1 µM), migration at 37°C for 30 minutes; read-out: Neutrophil migration inhibition IC50
Method in brief: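 Neutrophils from healthy donors' peripheral blood (8 x 10^6/ml) were preincubated 5 min at room temperature with compound. Migrated cells were stained and absorbance read at 595 nm; inhibition (%) was calculated against compound-free wells.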

[5] = system: myosin light chain phosphorylation enzyme (MLCK); assay: Action on myosin light chain phosphorylation enzyme (MLCK) activity, ELISA (second Test Example 7); type: biochemical, chicken; conditions: result in words
Description: A myosin light chain phosphorylation enzyme (MLCK) was purified from chicken gizzard smooth muscle by a conventional method (Yoshida, M., et al., J. Biochem., 99, 1027-1036 (1986)). The myosin regulatory light chain as a substrate was purified from the chicken gizzard smooth muscle by a conventional method (Grand, R. J., et al., Biochem. J., 211, 267-272 (1983)). The MLCK activity was measured by ELISA using pLC1 described in Test Example 1 (Sakurada, K., et al., J. Biochem., 115, 18-21 (1994)). […] In a volume of 100 µ1 each of 20% aqueous phosphoric acid solution was added to each well to terminate the enzymatic reaction. Each well was washed with 25 mM Tris/HCl buffer (TTBS) containing 0.1% Tween 20, and then 100 µl each of pLC1 described in Test Example 1 was added to each well and incubated at room temperature for 90 minutes. Each well was washed with TTBS, and then 100 µl of the HRP-labeled rabbit anti-mouse IgG antibodies (Bio-Rad) were added to each well and incubated at room temperature for 90 minutes. […] 50 µl of 4 N sulfuric acid was added to each well to terminate the reaction, and then absorbance was measured by using an immunoplate reader (Bio-Rad).

[6] = system: thoracic aorta; assay: Vasoconstriction inhibitory action on aorta rings constricted with phenylephrine (Test Example 2); set-up: species or system Rats (Wistar, 11-week old); conditions: result in words; aorta constricted with phenylephrine (1 µM)
From the text: Rats (Wistar, 11-week old) were bleeded to death and laparotomized to take out the thoracic aorta.

[7] = system: BALB/c female mice; assay: Respiratory tract inflammation suppressing action, OVA-induced (Test Example 6); type: in vivo; conditions: orally 30 mg/kg once a day for 5 days; inhalation of 2% OVA; alveoli washed after 24 hours
Description: According to the method described in Henderson, W.R., et al., Am. J. Respir. Cric. Care Med., 165(1), 108-116 (2002), suppressing action on bronchial inflammation was confirmed. BALB/c female mice (7-week old) were used for the test, each group consisting of 7 mice, and the control group consisting of 11 or 12 mice. The mice were intraperitoneally administered with ovalbumin (OVA, 100 ng, Sigma) and 1 mg of aluminum hydroxide for initial immunization, and after 2 weeks, they are subcutaneously administered with 10 ng of OVA as additional immunization. After further 1 week, a test compound was dissolved in water containing 0.5% carboxymethylcellulose and orally administered (30 mg/kg) to the test animals once a day for 5 days. The control group was similarly given only with water containing 0.5% carboxymethylcellulose. After 1 hour, the mice were orally inhaled with 2% OVA for 10 minutes to induce a respiratory tract inflammation. Further, the control group, in which the mice were not given with the test compound, was divided into a positive control group (n = 7), in which the mice were inhaled with 2% OVA to induce the reaction, and a negative control group (n = 4 or 5), in which the mice were similarly inhaled with physiological saline. After 24 hours, alveoli in the lungs of the test animals were washed with physiological saline, and the total infiltrated white blood cells (WBC) were counted.

[8] = system: human neutrophil fraction; assay: Action on increase of intracellular calcium concentration, Fura2-AM, fMLP (Test Example 7); type: cell-based; conditions: test compound 1 µM added 3 minutes before fMLP (1 µM), R = F340/F380, without test compound = 100%, read-out: Maximum R value (%)
Description: According to the method described in Test Example 1, a neutrophil containing fraction was prepared. Fura2-AM (Sigma) at a final concentration of 3 µM was added to the human neutrophil fraction and the mixture was incubated at 37°C for 1 hour. After centrifugation (250 g for 5 minutes), the supernatant was discarded, and the neutrophils were resuspended in Hanks' Balanced Salt Solution (HBSS, Gibco) to prepare a cell suspension (8 x 10^6/ml) for measurement of intracellular calcium concentration. The cell suspension for measurement of intracellular calcium concentration was left stand at room temperature for 30 minutes. Then, 490 µl of the cell suspension for measurement of intracellular calcium concentration was placed in a cuvette, 10 µl of calcium chloride solution at a final concentration of […] was added to it and the cuvette was set in an intracellular calcium concentration analyzer (CAF110, Nippon Bunko). fMLP (Sigma) solution at a final concentration of 1 µM was added to the cell suspension, and F340 and F380, which are fluorescence intensity at 340 nm and 380 nm, respectively, were measured to obtain an R value (F340/F380) as an index of the intracellular calcium concentration. A test compound (1 µM) was added 3 minutes before the addition of fMLP, and the action on the intracellular calcium concentration was observed. The ratios of the maximum R value obtained with addition of each test compound, based on the maximum R value obtained without addition of test compound and taken as 100%, are shown in Table 10 mentioned below.

[9] = Homo sapiens, Neutrophil, 5 min

SMILES	IC50 [1, 9]	IC50 ([1]; hydrochloride)	constriction of respiratory tract (airway resistance value) [2]	inhibition in vivo at 1 % [3]	IC50 [4]	inhibition of MLCK [5]	vasoconstriction inhibitory action [6]	Total WBC count x 10E5/ml/mouse [7]	activity at 1 µM [8]
c1cc(NC2CCCNC2)c2ccncc2c1 (racemic) [Example 29, 3-N-(5-Isoquinolyl)aminopiperidine hydrochloride]	≤ 40 µM	≤ 20 µM	significantly improved the constriction of respiratory tract	18.8%	≤ 40 µM	did not inhibit MLCK			
Cl.NCCCN(CCc1cccs1)S(=O)(=O)c1cccc2cnccc12 [Example 2, N-[(5-Isoquinolyl)sulfonyl]-N-[2-(2-thienyl)ethyl]-1,3-propylenediamine hydrochloride]	0.8 µM		significantly improved the constriction of respiratory tract		1 to 10 µM		significant vasoconstriction inhibitory action	200 x 10E5/ml/mouse	99%
